# Data as given in US10329262B2, “Quinazolinone antibiotics” (priority 2013, dated 2019).
# Like-named read-outs stand apart in the source and are kept apart here.
# How the values were obtained:
# [1] = in vivo; details: mouse, in vivo
# Protocol: We conducted first fast PK studies (n=2 mice per time point, 5 time points) dosing the compounds iv, followed by full PK studies for selected compounds (n=3 mice per time point, 10-12 time points per route of administration, iv and po).
# A single dose of compound 2 was administered to mice (n=3 per time point) by tail vein injection or by oral gavage at 10 mg/kg. Blood was collected by cardiac puncture in heparinized syringes at 2, 5, 20, and 40 min and at 1, 2, 3, 4, 8, 18, and 24 h after iv dosing and at 0.5, 1, 2, 3, 4, 6, 9, 24, and 30 h after po dosing. Blood was centrifuged to obtain plasma. A 50-μL aliquot of plasma was mixed with 100 μL of acetonitrile containing internal standard (5 μM final concentration), followed by centrifugation at 20,000 g for 15 min. The supernatant was analyzed by reverse-phase UPLC. PK parameters were calculated as described in the Plasma protein binding and Pharmacokinetics sections below (see also Gooyit et al. J. Med. Chem. 54, 6676-6690 (2011)).
# The area under the concentration-time curve up to the last quantifiable sampling time (AUC0-last) was calculated by the trapezoidal rule. AUC0-∞ was calculated as AUC0-last+(Clast/k), where Clast is the concentration at the last quantifiable sampling time and k is the elimination rate constant. The concentration at time=0 (C0) was estimated from the first sampling times by back-extrapolation using log-linear regression analysis. Half-lives (t1/2α and t1/2β) were estimated from the linear portion of the initial or terminal concentration-time data by linear regression, where the slope of the line was the rate constant k and t1/2α=ln 2/k. Volume of distribution (Vd) was calculated as the dose divided by the initial concentration (C0). Clearance (CL) was calculated from the dose divided by AUC0-∞. Oral bioavailability (F) was calculated by dividing the AUCpo by the AUCiv, as equivalent iv and po doses were administered.
# [2] = system: S. aureus NRS70; test: MIC, broth microdilution, S. aureus NRS70; format: cell-based, Staphylococcus aureus; details: for MIC: Staphylococcus aureus
# Protocol: (§1) MICs were evaluated following the CLSI microdilution method in BBL™ Mueller-Hinton II broth (Wikler et al., Clinical Laboratory Standards Institute Document M7-A7, 29 (2009)). Briefly, two-fold serial dilutions of compound were prepared in triplicate in 96-well plates and inoculated with 5×10^5 cfu/mL of the bacterial suspension. Plates were incubated at 37° C. for 16-20 hours.
# [3] = Metabolic stability in human S9; format: in vitro ADME; details: human S9, 2 μM
# Protocol: (§2) Aliquots were taken at 0, 5, 10, 20, 30, 40, and 60 min, and mixed with two volumes of acetonitrile containing internal standard. The precipitated protein was centrifuged at 20,000 g for 15 min, and the supernatant was analyzed by reversed-phase UPLC.
# [4] = system: MRSA ATCC 27660; test: Mouse peritonitis model of MRSA infection; format: in vivo, mice
# Protocol: We evaluated several compounds in in vivo mouse infection models, as well as in pharmacokinetic (PK) studies in mice (Table 1). The in vivo efficacy was determined using the rapid mouse peritonitis model of infection, in which the end point is death or survival in 48 hours. We initially dosed the compounds intravenously (iv) at a single dose level. If the compound has good in vivo efficacy after iv administration, we then evaluated efficacy at five dose levels. We also investigated in vivo efficacy after oral (po) administration.
# Groups (n=6/group) of mice were infected with MRSA (0.5 mL of ATCC 27660 at a final concentration of 5×10^7 CFU/mL in 5% porcine mucin) intraperitoneally (ip). Following infection, mice were given iv doses by tail vein injection of compound 2, vancomycin (5 mg/kg, positive control), or vehicle at 30 min and 4.5 h after infection. The number of surviving mice was monitored for 48 h. The negative control (vehicle) typically results in the death of all mice. Quinazolinone 2 was dissolved in saline, sterile-filtered, and administered at doses of 2.5, 5, 7.5, 10, 20, and 30 mg/kg. The ED50 value was calculated using GraphPad prism 5.
# [5] = system: S. aureus VRS1; test: MIC, CLSI broth microdilution, S. aureus VRS1; format: cell-based, Staphylococcus aureus
# Protocol: as §1
# [6] = Plasma protein binding, rapid equilibrium dialysis, mouse; format: in vitro ADME; details: pH 7.4, mice, 6 h dialysis
# Protocol: Aliquots from both chambers were quenched with 1:2 v/v acetonitrile containing an internal standard. The samples were concentrated to dryness on a miVac concentrator and the residue resuspended in 50:50 acetonitrile/water. Samples were analyzed by reverse-phase ultraperformance liquid chromatography (UPLC) with UV/Vis detection. Plasma protein binding of quinazolinone 2 was 98.0±0.04% in mice and 96.5±0.70% in humans.
# [7] = system: S. aureus ATCC 29213 (MSSA); test: MIC, CLSI broth microdilution, S. aureus ATCC 29213; format: cell-based, Staphylococcus aureus
# Protocol: as §1
# [8] = system: S. epidermidis ATCC 35547; test: MIC, CLSI broth microdilution, S. epidermidis ATCC 35547; format: cell-based
# Protocol: as §1
# [9] = system: S. aureus NRS119; test: MIC, CLSI broth microdilution, S. aureus NRS119; format: cell-based, Staphylococcus aureus
# Protocol: as §1
# [10] = system: S. aureus VRS2; test: MIC, CLSI broth microdilution, S. aureus VRS2; format: cell-based, Staphylococcus aureus
# Protocol: as §1
# [11] = Metabolic stability in rat S9; format: in vitro ADME; details: rat S9, 2 μM
# Protocol: as §2
smiles,measurement,setting,value
"N#Cc1ccc(/C=C/c2nc3ccccc3c(=O)n2-c2cccc(C(=O)O)c2)cc1.[Na] [Compound 2, Sodium (E)-3-(3-carboxyphenyl)-2-(4-cyanostyryl)quinazolin-4(3H)-one]",clearance,"[1]; ICR, iv, 10 mg/kg",7.1 mL/min/kg
same,concentration at 24 h,"[1]; ICR, iv, 10 mg/kg",142 ± 53 ng/mL
same,t1/2elimination,"[1]; ICR, iv, 10 mg/kg",22 h
same,half-life,"[1]; ICR, po, 10 mg/kg",58 h
same,AUC,"[1]; female, ICR, iv",23500 ng·h/mL
same,clearance,"[1]; female, ICR, iv",7.1 mL/min/kg
same,Vd,"[1]; female, ICR, iv, 10 mg/kg",0.0076 L
same,half-life,"[1]; female, ICR, iv, 10 mg/kg",22 h
same,AUC,"[1]; female, ICR, po, 10 mg/kg",15500 ng·h/mL
same,bioavailability,"[1]; female, ICR, po, 10 mg/kg, F (oral bioavailability)",66%
same,bioavailability,"[1]; 10 mg/kg, F (absolute oral bioavailability)",66%
same,AUC(0-inf),"[1]; iv, 10 mg/kg",23500 ng·h/mL
same,AUC(0-t),"[1]; iv, 10 mg/kg",19700 ng·h/mL
same,C0,"[1]; iv, 10 mg/kg",33000 ng/mL
same,Clearance as share of hepatic blood flow in mice,"[1]; iv, 10 mg/kg",less than 10%
same,Distribution t1/2α,"[1]; iv, 10 mg/kg",0.243 h
same,Vd,"[1]; iv, 10 mg/kg",0.303 L/kg
same,Volume of distribution,"[1]; iv, 10 mg/kg",0.3 L/kg
same,clearance,"[1]; iv, 10 mg/kg",7.07 mL/min/kg
same,concentration at 24 h,"[1]; iv, 10 mg/kg",142 ± 53 ng/mL
same,t1/2distribution,"[1]; iv, 10 mg/kg",0.242 h
same,t1/2elimination,"[1]; iv, 10 mg/kg",22.3 h
same,Plasma level at 24 hours,"[1]; iv, 10 mg/kg, 24 h",142 ± 53 ng/mL
same,AUC(0-inf),"[1]; po, 10 mg/kg",15500 ng·h/mL
same,AUC(0-t),"[1]; po, 10 mg/kg",6550 ng·h/mL
same,Cmax,"[1]; po, 10 mg/kg",1290 ng/mL
same,Time of maximum concentration,"[1]; po, 10 mg/kg",1 h
same,half-life,"[1]; po, 10 mg/kg",58.2 h
same,t1/2distribution,"[1]; po, 10 mg/kg",2.06 h
same,MIC,[2]; NRS70,2 µg/mL
same,MIC,"[2]; NRS70, read-out: MIC NRS70",4 µg/mL
same,In vitro AB activity (MIC),"[2]; Table 2.1, S. aureus NRS70",2 µg/mL
same,Compound remaining after 1-h incubation,[3],100%
same,In Vivo Efficacy (survived/total mice),"[4]; 10 mg/kg iv at 30 min and 4.5 hr after infection, n = 6, 48 h",5/6 @ 10 mg/kg
same,ED50,"[4]; Staphylococcus aureus, iv administration, dose giving survival of 50% of the animals, read-out: Median effective dose (ED50)",10 mg/kg
same,MIC,"[5]; Staphylococcus aureus, VRS1",16 µg/mL
same,In vitro AB activity (MIC),"[5]; Table 2.1, S. aureus VRS1",16 µg/mL
same,"fraction unbound at 6 h, 10 μM",[6],0.02
same,MIC,[7]; Staphylococcus aureus,2 µg/mL
same,In vitro AB activity (MIC),"[7]; Table 2.1, S. aureus ATCC 29213",2 µg/mL
same,Increase of MIC in the presence of BSA,[7]; with BSA vs without,4 fold
same,MIC,"[8]; Staphylococcus epidermidis, ATCC35547",1 µg/mL
same,In vitro AB activity (MIC),"[8]; Table 2.1, S. epidermidis ATCC 35547",1 µg/mL
same,MIC,"[9]; Staphylococcus aureus, NRS119",8 µg/mL
same,In vitro AB activity (MIC),"[9]; Table 2.1, S. aureus NRS119",8 µg/mL
same,MIC,"[10]; Staphylococcus aureus, VRS2",2 µg/mL
same,In vitro AB activity (MIC),"[10]; Table 2.1, S. aureus VRS2",2 µg/mL
same,Compound remaining after 1-h incubation,[11],100%
